Results: ChEMBL document CHEMBL1131541, “New synthetic inhibitors of microtubule depolymerization” (1998)
The source made the active and inactive calls. The calls are words filed in the database; no cut-off is given here.

Each molecule was assayed against Tubulin beta chain (Bos taurus) (UniProt Q6B856) (assay: Effect on microtubule stabilization isolated from bovine brain).
Sequence of Tubulin beta chain (Bos taurus) (Q6B856 whole entry): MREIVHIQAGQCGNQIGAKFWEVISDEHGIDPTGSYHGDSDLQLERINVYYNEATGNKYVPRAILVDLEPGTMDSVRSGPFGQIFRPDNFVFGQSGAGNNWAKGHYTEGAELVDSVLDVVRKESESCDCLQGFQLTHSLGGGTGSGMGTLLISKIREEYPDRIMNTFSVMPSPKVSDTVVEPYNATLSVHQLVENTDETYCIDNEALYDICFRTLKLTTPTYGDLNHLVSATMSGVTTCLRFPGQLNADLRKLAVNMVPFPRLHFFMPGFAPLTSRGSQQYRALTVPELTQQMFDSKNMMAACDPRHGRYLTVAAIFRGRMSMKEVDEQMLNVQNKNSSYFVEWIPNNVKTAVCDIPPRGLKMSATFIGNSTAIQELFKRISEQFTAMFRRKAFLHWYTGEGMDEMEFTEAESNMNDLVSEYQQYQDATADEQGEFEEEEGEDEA
`CCOC(=O)N[C@@H](c1ccc(O)cc1)[C@@H](O)C(=O)OC1CC2C(C)(C)C1(C)[C@@]13C[C@H](C)c4ccccc4[C@@]21O3` (stereo partly specified) was tested, and the Relative stability was 306%. `C=C1C[C@@]23O[C@]2(c2ccccc21)C1CC(OC(=O)[C@H](O)[C@@H](NC(=O)OCC)c2cccnc2)C3(C)C1(C)C` (stereo partly specified) showed a Relative stability of 65%. `C=C1C[C@@]23O[C@]2(c2ccccc21)C1CC(OC(=O)[C@H](O)[C@@H](NC(=O)OCC)c2ccoc2)C3(C)C1(C)C` (stereo partly specified) was tested, and the Relative stability was 119%. Molecule `CCOC(=O)N[C@@H](c1ccc(OC)cc1)[C@@H](O)C(=O)OC1CC2C(C)(C)C1(C)[C@@]13C[C@H](C)c4ccccc4[C@@]21O3` (stereo partly specified) has a Relative stability of 125%. With `CCCCOC(=O)N[C@@H](c1ccncc1)[C@@H](O)C(=O)OC1CC2C(C)(C)C1(C)[C@@]13CC(C)c4ccccc4[C@@]21O3` (stereo partly specified) the Relative stability was -3%. With `C=C1C[C@@]23O[C@]2(c2ccccc21)C1CC(OC(=O)[C@H](O)[C@@H](NC(=O)OC)c2ccccc2)C3(C)C1(C)C` (stereo partly specified) the Relative stability was 164%. Work on `COC(=O)N[C@@H](c1ccccc1)[C@@H](O)C(=O)OC1CC2C(C)(C)C1(C)[C@@]13C[C@H](C)c4ccccc4[C@@]21O3` (stereo partly specified) yielded a Relative stability of 244%. With `C=C1C[C@@]23O[C@]2(c2ccccc21)C1CC(OC(=O)[C@H](O)[C@@H](NC(=O)OCC)c2ccncc2)C3(C)C1(C)C` (stereo partly specified) the Relative stability was 423%. Molecule `CCCCOC(=O)N[C@@H](c1ccc(O)cc1)[C@@H](O)C(=O)OC1CC2C(C)(C)C1(C)[C@@]13CC(C)c4ccccc4[C@@]21O3` (stereo partly specified) has a Relative stability of 80%. `C=C1C[C@@]23O[C@]2(c2ccccc21)C1CC(OC(=O)[C@H](O)[C@@H](NC(=O)OCC)c2ccsc2)C3(C)C1(C)C` (stereo partly specified) was tested, and the Relative stability was 788%. In the case of `CC(C)NC(=O)N[C@@H](c1ccccc1)[C@@H](O)C(=O)OC1CC2C(C)(C)C1(C)[C@@]13C[C@H](C)c4ccccc4[C@@]21O3` (stereo partly specified), the Relative stability is reported as 150%. `C=C1C[C@@]23O[C@]2(c2ccccc21)C1CC(OC(=O)[C@H](O)[C@@H](NC(=O)OCC)c2ccc(F)cc2)C3(C)C1(C)C` (stereo partly specified) was tested, and the Relative stability was 152%. Work on `CCCCNC(=O)N[C@@H](c1ccccc1)[C@@H](O)C(=O)OC1CC2C(C)(C)C1(C)[C@@]13C[C@H](C)c4ccccc4[C@@]21O3` (stereo partly specified) yielded a Relative stability of 130%. Molecule `C=C1C[C@@]23O[C@]2(c2ccccc21)C1CC(OC(=O)[C@H](O)[C@@H](NC(=O)CC)c2ccccc2)C3(C)C1(C)C` (stereo partly specified) has a Relative stability of 108%. For `C=C1C[C@@]23O[C@]2(c2ccccc21)C1CC(OC(=O)[C@H](O)[C@@H](NC(=O)CCC)c2ccccc2)C3(C)C1(C)C` (stereo partly specified), the Relative stability was 114%. With `COC(=O)N[C@@H](c1ccsc1)[C@@H](O)C(=O)OC1CC2C(C)(C)C1(C)[C@@]13CC(C)c4ccccc4[C@@]21O3` (stereo partly specified) the Relative stability was 316%. `CCOC(=O)N[C@@H](c1ccncc1)[C@@H](O)C(=O)OC1CC2C(C)(C)C1(C)[C@@]13C[C@H](C)c4ccccc4[C@@]21O3` (stereo partly specified) was tested, and the Relative stability was 1300%. Work on `C[C@H]1C[C@@]23O[C@]2(c2ccccc21)C1CC(OC(=O)[C@H](O)[C@@H](NC(=O)CCC2CCCC2)c2ccccc2)C3(C)C1(C)C` (stereo partly specified) yielded a Relative stability of 86%. `COC(=O)N[C@@H](c1ccc(O)cc1)[C@@H](O)C(=O)OC1CC2C(C)(C)C1(C)[C@@]13CC(C)c4ccccc4[C@@]21O3` (stereo partly specified) showed a Relative stability of 293%. Molecule `CCOC(=O)N[C@@H](c1ccccc1)[C@@H](O)C(=O)OC1CC2C(C)(C)C1(C)[C@@]13C[C@](O)(CO)c4ccccc4[C@@]21O3` (stereo partly specified) has a Relative stability of 20%. Work on `CCOC(=O)N[C@@H](c1ccc(C)cc1)[C@@H](O)C(=O)OC1CC2C(C)(C)C1(C)[C@@]13C[C@H](C)c4ccccc4[C@@]21O3` (stereo partly specified) yielded a Relative stability of 152%. With `C=C1C[C@@]23O[C@]2(c2ccccc21)C1CC(OC(=O)[C@H](O)[C@@H](NC(C)=O)c2ccccc2)C3(C)C1(C)C` (stereo partly specified) the Relative stability was 89%. `CCOC(=O)N[C@@H](c1ccoc1)[C@@H](O)C(=O)OC1CC2C(C)(C)C1(C)[C@@]13C[C@H](C)c4ccccc4[C@@]21O3` (stereo partly specified) showed a Relative stability of 190%. With `CCCC(=O)N[C@@H](c1ccccc1)[C@@H](O)C(=O)OC1CC2C(C)(C)C1(C)[C@@]13C[C@H](C)c4ccccc4[C@@]21O3` (stereo partly specified) the Relative stability was 168%. `C=C1C[C@@]23O[C@]2(c2ccccc21)C1CC(OC(=O)[C@H](O)[C@@H](NC(=O)OCC)c2ccc(O)cc2)C3(C)C1(C)C` (stereo partly specified) was tested, and the Relative stability was 130%. Work on `C=C1C[C@@]23O[C@]2(c2ccccc21)C1CC(OC(=O)[C@H](O)[C@@H](NC(=O)OCC)c2ccc(OC)cc2)C3(C)C1(C)C` (stereo partly specified) yielded a Relative stability of 95%. Work on `CCOC(=O)N[C@@H](c1ccncc1)[C@@H](O)C(=O)OC1CC2C(C)(C)C1(C)[C@@]13C[C@@H](C)c4ccccc4[C@@]21O3` (stereo partly specified) yielded a Relative stability of 227%. For `COC(=O)N[C@@H](c1ccncc1)[C@@H](O)C(=O)OC1CC2C(C)(C)C1(C)[C@@]13C[C@](O)(COC(C)=O)c4ccccc4[C@@]21O3` (stereo partly specified), the Relative stability was 116%. Molecule `CCOC(=O)N[C@@H](c1ccccc1)[C@@H](O)C(=O)OC1CC2C(C)(C)C1(C)[C@@]13C[C@](O)(COC(C)=O)c4ccccc4[C@@]21O3` (stereo partly specified) has a Relative stability of 22%. `C=C1C[C@@]23O[C@]2(c2ccccc21)C1CC(OC(=O)[C@H](O)[C@@H](NC(=O)OCC)c2cccs2)C3(C)C1(C)C` (stereo partly specified) was tested, and the Relative stability was 215%. `CCOC(=O)N[C@@H](c1ccc(Cl)cc1)[C@@H](O)C(=O)OC1CC2C(C)(C)C1(C)[C@@]13C[C@H](C)c4ccccc4[C@@]21O3` (stereo partly specified) showed a Relative stability of 193%. `C=C1C[C@@]23O[C@]2(c2ccccc21)C1CC(OC(=O)[C@H](O)[C@@H](NC(=O)CC(C)C)c2ccccc2)C3(C)C1(C)C` (stereo partly specified) showed a Relative stability of 101%. In the case of `C=C1C[C@@]23O[C@]2(c2ccccc21)C1CC(OC(=O)[C@H](O)[C@@H](NC(=O)OCC)c2ccc(Cl)cc2)C3(C)C1(C)C` (stereo partly specified), the Relative stability is reported as 163%. `C=C1C[C@@]23O[C@]2(c2ccccc21)C1CC(OC(=O)[C@H](O)[C@@H](NC(=O)OCCCC)c2ccccc2)C3(C)C1(C)C` (stereo partly specified) was tested, and the Relative stability was 83%. `CCOC(=O)N[C@@H](c1ccncc1)[C@@H](O)C(=O)OC1CC2C(C)(C)C1(C)[C@@]13C[C@](O)(CO)c4ccccc4[C@@]21O3` (stereo partly specified) was tested, and the Relative stability was 327%. Work on `C=C1C[C@@]23O[C@]2(c2ccccc21)C1CC(OC(=O)[C@H](O)[C@@H](NC(=O)OC(C)(C)C)c2ccccc2)C3(C)C1(C)C` (stereo partly specified) yielded a Relative stability of 27%. For `C=C1C[C@@]23O[C@]2(c2ccccc21)C1CC(OC(=O)[C@H](O)[C@@H](NC(=O)OCC)c2cccc(F)c2)C3(C)C1(C)C` (stereo partly specified), the Relative stability was 106%. `CCOC(=O)N[C@@H](c1cccc(F)c1)[C@@H](O)C(=O)OC1CC2C(C)(C)C1(C)[C@@]13C[C@H](C)c4ccccc4[C@@]21O3` (stereo partly specified) was tested, and the Relative stability was 139%. In the case of `C[C@H]1C[C@@]23O[C@]2(c2ccccc21)C1CC(OC(=O)[C@H](O)[C@@H](NC(=O)NC(C)(C)C)c2ccccc2)C3(C)C1(C)C` (stereo partly specified), the Relative stability is reported as 153%. `CCOC(=O)N[C@@H](c1cccs1)[C@@H](O)C(=O)OC1CC2C(C)(C)C1(C)[C@@]13C[C@H](C)c4ccccc4[C@@]21O3` (stereo partly specified) was tested, and the Relative stability was 311%. With `C=C1C[C@@]23O[C@]2(c2ccccc21)C1CC(OC(=O)[C@H](O)[C@@H](NC(=O)OCC)c2ccc(C)cc2)C3(C)C1(C)C` (stereo partly specified) the Relative stability was 142%. In the case of `C=C1C[C@@]23O[C@]2(c2ccccc21)C1CC(OC(=O)[C@H](O)[C@@H](NC(=O)NC(C)C)c2ccccc2)C3(C)C1(C)C` (stereo partly specified), the Relative stability is reported as 103%. Work on `CCCC(=O)N[C@@H](c1ccncc1)[C@@H](O)C(=O)OC1CC2C(C)(C)C1(C)[C@@]13CC(C)c4ccccc4[C@@]21O3` (stereo partly specified) yielded a Relative stability of 862%. With `CCOC(=O)N[C@@H](c1ccsc1)[C@@H](O)C(=O)OC1CC2C(C)(C)C1(C)[C@@]13C[C@@H](C)c4ccccc4[C@@]21O3` (stereo partly specified) the Relative stability was 58%. With `C=C1C[C@@]23O[C@]2(c2ccccc21)C1CC(OC(=O)[C@H](O)[C@@H](NC(=O)NC(C)(C)C)c2ccccc2)C3(C)C1(C)C` (stereo partly specified) the Relative stability was 92%. `CCOC(=O)N[C@@H](c1ccccc1)[C@@H](O)C(=O)OC1CC2C(C)(C)C1(C)[C@@]13C[C@H](C)c4ccccc4[C@@]21O3` (stereo partly specified) gave a Relative stability of 209%. With `C=C1C[C@@]23O[C@]2(c2ccccc21)C1CC(OC(=O)[C@H](O)[C@@H](NC(=O)OCC)c2ccccc2)C3(C)C1(C)C` (stereo partly specified) the Relative stability was 228%. In the case of `CCOC(=O)N[C@@H](c1ccsc1)[C@@H](O)C(=O)OC1CC2C(C)(C)C1(C)[C@@]13C[C@H](C)c4ccccc4[C@@]21O3` (stereo partly specified), the Relative stability is reported as 788%. In the case of `C=C1C[C@@]23O[C@]2(c2ccccc21)C1CC(OC(=O)[C@H](O)[C@@H](NC(=O)NCCCC)c2ccccc2)C3(C)C1(C)C` (stereo partly specified), the Relative stability is reported as 68%. Work on `CCOC(=O)N[C@@H](c1ccc(F)cc1)[C@@H](O)C(=O)OC1CC2C(C)(C)C1(C)[C@@]13C[C@H](C)c4ccccc4[C@@]21O3` (stereo partly specified) yielded a Relative stability of 139%. `CCCC(=O)N[C@@H](c1ccsc1)[C@@H](O)C(=O)OC1CC2C(C)(C)C1(C)[C@@]13CC(C)c4ccccc4[C@@]21O3` (stereo partly specified) gave a Relative stability of 91%. `CC(C)NC(=O)N[C@@H](c1ccsc1)[C@@H](O)C(=O)OC1CC2C(C)(C)C1(C)[C@@]13CC(C)c4ccccc4[C@@]21O3` (stereo partly specified) was tested, and the Relative stability was 56%. In the case of `CCOC(=O)N[C@@H](c1cccnc1)[C@@H](O)C(=O)OC1CC2C(C)(C)C1(C)[C@@]13C[C@H](C)c4ccccc4[C@@]21O3` (stereo partly specified), the Relative stability is reported as 119%. Molecule `COC(=O)N[C@@H](c1ccncc1)[C@@H](O)C(=O)OC1CC2C(C)(C)C1(C)[C@@]13C[C@]4(CO4)c4ccccc4[C@@]21O3` (stereo partly specified) has a Relative stability of 423%. Molecule `C[C@H]1C[C@@]23O[C@]2(c2ccccc21)C1CC(OC(=O)[C@H](O)[C@@H](NC(=O)OC(C)(C)C)c2ccccc2)C3(C)C1(C)C` (stereo partly specified) has a Relative stability of 148%.

What follows are molecules tested against Tubulin beta chain (Bos taurus) (UniProt Q6B856) (assay: Compound was tested for its effect on microtubule stabilization isolated from bovine brain; NS: not significant).
`CCOC(=O)N[C@@H](c1ccc(OCc2ccccc2)cc1)[C@@H](O)C(=O)OC1CC2C(C)(C)C1(C)[C@@]13C[C@H](C)c4ccccc4[C@@]21O3` (stereo partly specified) was tested, and the Relative stability was “inactive”. `C=C1C[C@@]23O[C@]2(c2ccccc21)C1CC(OC(=O)[C@H](O)[C@@H](NC(=O)OCC)c2ccc(OCc4ccccc4)cc2)C3(C)C1(C)C` (stereo partly specified) was tested, and the Relative stability was “inactive”. `CCCCOC(=O)N[C@@H](c1ccccc1)[C@@H](O)C(=O)OC1CC2C(C)(C)C1(C)[C@@]13C[C@H](C)c4ccccc4[C@@]21O3` (stereo partly specified) was tested, and the Relative stability was “inactive”. In the case of `C=C1C[C@@]23O[C@]2(c2ccccc21)C1CC(OC(=O)[C@H](O)[C@@H](NC(=O)NCC)c2ccccc2)C3(C)C1(C)C` (stereo partly specified), the Relative stability is reported as “inactive”. For `CCOC(=O)N[C@@H](c1ccsc1)[C@@H](O)C(=O)OC1CC2C(C)(C)C1(C)[C@@]13C[C@](O)(COC(C)=O)c4ccccc4[C@@]21O3` (stereo partly specified), the Relative stability was “inactive”. For `CCNC(=O)N[C@@H](c1ccccc1)[C@@H](O)C(=O)OC1CC2C(C)(C)C1(C)[C@@]13C[C@H](C)c4ccccc4[C@@]21O3` (stereo partly specified), the Relative stability was “inactive”.
